pIC50: −log10 of the molar value. In brackets after ≈: the same amount, converted by molar mass.
Experiments:
[1] = Inhibition of wild type Streptococcus pneumoniae LigA
[2] = Inhibition of Enterococcus faecalis LigA
DNA ligase = DNA ligase (Staphylococcus aureus, UniProt Q9AIU7); assay: Inhibition of Staphylococcus aureus LigA
[3] = Inhibition of Haemophilus influenzae LigA
Streptococcus pneumoniae [4] = assay: Antibacterial activity against Streptococcus pneumoniae ARC548; assay type: functional
[5] = Inhibition of Streptococcus pneumoniae LigA L75F mutant
Streptococcus pneumoniae [6] = assay: Selectivity ratio of IC50 for Streptococcus pneumoniae LigA L75F mutant to IC50 for wild type Streptococcus pneumoniae LigA

Chain of DNA ligase (Q9AIU7 whole entry): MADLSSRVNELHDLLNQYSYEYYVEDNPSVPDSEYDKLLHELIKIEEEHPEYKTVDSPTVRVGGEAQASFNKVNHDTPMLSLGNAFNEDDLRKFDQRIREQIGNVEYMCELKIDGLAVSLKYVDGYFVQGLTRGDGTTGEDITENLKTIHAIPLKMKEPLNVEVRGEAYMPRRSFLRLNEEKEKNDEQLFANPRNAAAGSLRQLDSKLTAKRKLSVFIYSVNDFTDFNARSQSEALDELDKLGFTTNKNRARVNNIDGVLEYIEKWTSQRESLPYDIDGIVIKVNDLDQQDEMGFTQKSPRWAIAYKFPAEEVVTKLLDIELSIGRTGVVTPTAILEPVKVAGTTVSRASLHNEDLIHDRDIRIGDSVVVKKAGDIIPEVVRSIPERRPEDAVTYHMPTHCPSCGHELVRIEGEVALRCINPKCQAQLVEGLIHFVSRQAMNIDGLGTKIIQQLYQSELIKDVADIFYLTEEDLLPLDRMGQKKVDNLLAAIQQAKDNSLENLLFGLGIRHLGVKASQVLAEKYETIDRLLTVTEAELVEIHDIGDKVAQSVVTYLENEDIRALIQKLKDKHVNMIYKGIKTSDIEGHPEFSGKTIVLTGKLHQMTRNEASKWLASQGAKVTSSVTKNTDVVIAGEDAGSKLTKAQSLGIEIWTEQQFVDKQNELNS

SMILES | pIC50 [1] | pIC50 [2] | pIC50 (DNA ligase) | pIC50 [3] | MIC (Streptococcus pneumoniae [4]) | pIC50 [5] | Ratio IC50 (Streptococcus pneumoniae [6])
NC(=O)c1cnc(Nc2ccccc2)c2cc(Br)sc12 | < 3.70 | 3.80 | 3.82 | 3.80 | – | – | –
Cc1cc2c(N)ncc(C(N)=O)c2s1 | 3.70 | < 3.70 | < 3.70 | < 3.70 | – | – | –
NC(=O)c1cnc(N)c2c(C(N)=O)csc12 | 4.28 | < 3.70 | 4.16 | < 3.70 | – | – | –
NC(=O)c1cnc(N)c2ccsc12 | 4.60 | < 3.70 | < 3.70 | < 3.70 | – | – | –
CCCNc1ncc(C(N)=O)c2sc(Br)cc12 | 3.82 | 3.89 | 3.74 | 3.70 | – | – | –
NC(=O)c1cnc(N)c2c(-c3ccn[nH]3)csc12 | 4.00 | < 3.70 | < 3.70 | < 3.70 | – | – | –
NC(=O)c1cnc(N)c2cc(Br)sc12 | 4.68 | 4.11 | 4.32 | 3.80 | > 64 µg/mL | 4.32 | 2
CCNC(=O)c1cc2c(N)ncc(C(N)=O)c2s1 | 3.85 | < 3.70 | 4.12 | < 3.70 | – | – | –
NC(=O)c1cc2c(N)ncc(C(N)=O)c2s1 | 5.03 | 4.47 | 4.82 | < 3.70 | – | – | –
NC(=O)c1cnc(N)c2c(Br)csc12 | 4.44 | 3.89 | 4.41 | < 3.70 | – | – | –
Nc1nc(OC2CCCC2)nc2c1ncn2[C@@H]1O[C@H](CO)[C@@H](O)[C@H]1O | 6.68 | – | 6.37 | 6.29 | 8 µg/mL (≈ 22.8 µM) | 4.48 | –
Cc1c(Br)sc2c(C(N)=O)cnc(N)c12 | 5.51 | 5.09 | 5.15 | < 3.70 | – | 4.43 | –
NC(=O)c1cnc(NCCO)c2cc(Br)sc12 | < 3.70 | < 3.70 | < 3.70 | < 3.70 | – | – | –
NC(=O)c1cnc(N)c2cc(-c3ccn[nH]3)sc12 | 4.54 | 4.00 | 4.44 | < 3.70 | – | – | –
Cc1csc2c(C(N)=O)cnc(N)c12 | < 3.85 | < 3.70 | < 3.70 | < 3.70 | – | – | –
CCOC(=O)c1cc2c(N)ncc(C(N)=O)c2s1 | 5.03 | 4.13 | 5.05 | < 3.70 | – | – | –
